In US20070225255A1, “Use of Mitochondrially Targeted Antioxidant in the Treatment of Liver Diseases and Epithelial Cancers” (priority 2004, published 2007):

Tests used:
[1] = according to Jauslin M. L. et al., 2003, FASEB J.; cited from earlier work
hemoxygenase 1 (HO-1) = experiment: Western blot of hemoxygenase 1 in liver extracts of DDC intoxicated mice; type: in vivo, mouse; conditions: DDC 3 days, daily i.p. MitoQ in PBS/1% DMSO (112 nmol/kg), versus DDC intoxicated mice
Description: To evaluate hemoxygenase 1 (HO-1) protein expression know to be induced by oxidative stress (Suematsu M. and Ishimura Y., 2000, Hepatology, 31(1): 3-6) standard western blot analysis is performed using protein extracts derived from DDC intoxicated mice treated simultaneously for 3 days with MitoQ (diluted in 1% DMSO in PBS) or just vehicle itself (see protocols in Example 3).
Liver tissues are resuspended in ice-cold RIPA-buffer (50 mM Tris-HCl pH 7.4, 250 mM NaCl, 0.1% SDS, 1% deoxycholate, 1% NP-40) supplemented with 2 μg/ml leupeptin, 2 μg/ml pepstatin, 2 μg/ml aprotinin, 1 mM phenylmethylsulfonylfluoride (PMSF), and 2 mM dithiothreitol followed by homogenization through sonication (2 bursts of 5 seconds) on ice. After incubation for 20 minutes on ice, the lysates are cleared by two centrifugational steps in a microcentrifuge at 13 000 rpm for 15 minutes at 4° C. and the supernatants are collected. Protein concentrations are determined by the Bradford assay (Biorad) using bovine serum albumin as a standard. […] The intensities of the bands can be analysed densitometrically using ChemiImager 5500 software (Alpha Innotech) and each signal normalised to the intensity of the corresponding HO-2 (showing 7 fold reduction of HO-1 upon MitoQ treatment when compared to DDC intoxicated group of animals), or alternatively to β-actin.

HepG2 cells = experiment: ROS production (DCF fluorescence) in HepG2 cells, basal and CoCl2 stimulated; type: cell-based, human
Description: Alternatively, the generation of ROS is measured by using the fluoroprobe 5-(and-6)-chloromethyl-2′,7′-dichlorodihydrofluorescein diacetate acetyl ester (CM-H2DCFDA, Molecular Probes, Goettingen, Germany) which is converted to fluorescent dichlorofluorescien (DCF; Djordjevic T. et al., 2004, Antioxidants & Redox Signaling, 6: 713-720). To determine DCF fluorescence in a microplate reader (Tecan, Crailsheim, Germany), cells (e.g. HepG2, Hep3B or SNU-398) are grown in 96-well plates to 80% confluency. […] After several washes with HBSS to remove excess dye, fluorescence is monitored by using 480 nm excitation and 540 nm emission wavelength. DCF fluorescence is standardized to the number of viable cells using the Alamar Blue test according to the manufacturer's instructions (Biosource, Nivelles, Belgium). […] The absorbance is then measured at the wavelength of […].
In another experiment HepG2 stimulated by 100 μM CoCl2 (Sigma) are used (Bel Aiba R. S. et al., 2004,. Biol Chem. 385:249-57). […] The fluorescence is measured in a plate-reader (Tecan Safire) after 0, 10, 20 and 30 minutes (Djordjevic T, et al., 2005, Free Radic Biol Med. 38:616-30).

[2] = tested on: fatty acid binding protein (FABP); experiment: Western blot of fatty acid binding protein in DDC intoxicated mice; type: in vivo, mouse; conditions: MitoQ treatment of DDC intoxicated animals
Description: The protein expression level(s) of fatty acid binding protein (FABP) representing a sensitive marker for hepatocyte damage (Monbaliu D . et al., 2005, Transplant Proc. 37(1):413-416) is determined.

## MitoQ
[1]
  EC50: 0.51 nM
Hemoxygenase 1 (HO-1)
  reduction of HO-1 protein expression normalised to HO-2: 7 fold
HepG2 cells; HepG2 cells, 100 μM CoCl2, 5 μM MitoQ
  CoCl2-stimulated ROS production (relative DCF fluorescence): significantly decrease
HepG2 cells; unstimulated HepG2 cells, 5 μM MitoQ
  basal ROS production (relative DCF fluorescence): significantly decrease
[2]
  FABP protein expression: reaches almost control mice FABP protein expression values
